Test results from patent publication US20120095055A1, “HEXAHYDROCYCLOPENTYL[f]INDAZOLE 5-HYDROXYMETHYL ETHANOLS AND DERIVATIVES THEREOF AS SELECTIVE GLUCOCORTICOID RECEPTOR MODULATORS” (Merck Sharp & Dohme, Corp., priority 2009, published 2012).

Target: T1, human GR (Homo sapiens, UniProt P04150)
T1 construct: naturally expresses the human GR; endogenous in cells
T1 sequence (P04150 1-777): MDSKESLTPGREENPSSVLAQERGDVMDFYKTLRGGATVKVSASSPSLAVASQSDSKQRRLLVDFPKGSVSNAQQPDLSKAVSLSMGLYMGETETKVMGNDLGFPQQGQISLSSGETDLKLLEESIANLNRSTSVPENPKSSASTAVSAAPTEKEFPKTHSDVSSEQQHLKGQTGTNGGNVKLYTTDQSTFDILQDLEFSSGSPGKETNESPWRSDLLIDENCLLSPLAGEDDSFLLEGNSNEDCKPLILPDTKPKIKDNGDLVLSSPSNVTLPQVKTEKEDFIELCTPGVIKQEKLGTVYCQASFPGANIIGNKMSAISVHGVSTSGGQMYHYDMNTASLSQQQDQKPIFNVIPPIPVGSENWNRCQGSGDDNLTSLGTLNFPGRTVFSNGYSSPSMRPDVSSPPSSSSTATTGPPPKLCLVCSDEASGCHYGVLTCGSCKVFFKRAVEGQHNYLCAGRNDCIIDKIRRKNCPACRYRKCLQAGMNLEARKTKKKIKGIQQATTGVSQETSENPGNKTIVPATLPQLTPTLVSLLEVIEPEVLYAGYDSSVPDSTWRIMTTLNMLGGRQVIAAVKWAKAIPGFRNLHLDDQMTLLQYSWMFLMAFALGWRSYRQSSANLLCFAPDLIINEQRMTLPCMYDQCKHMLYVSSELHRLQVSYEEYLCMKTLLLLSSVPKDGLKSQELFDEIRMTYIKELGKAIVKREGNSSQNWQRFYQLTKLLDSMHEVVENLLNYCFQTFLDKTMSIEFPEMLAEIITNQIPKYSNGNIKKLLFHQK
Assay: Transrepression Assay (GITAR), TNFα-β-lactamase reporter in U937 cells
Type: cell-based
Conditions: for Emax: U-937, activity repressed by 100 nM dexamethasone set as 100%; for EC50: inflection point (IP), TNFα promoter β-lactamase reporter, PMA/LPS; for Transrepression U937 Cells GITAR Emax (%): activity repressed by 100 nM dexamethasone set as 100%
Source text: This assay assesses the ability of test compounds to control transcription from the TNFα-β-lactamase reporter gene in U937 cells, a human myelomonocytic leukemia cell line that naturally expresses the human GR. The assay measures compound dependent-repression of the TNFa promoter linked to a reporter gene.
The human U937 cells that had been stablely transfected with the TNF-α promoter driving β-lactamase are used for this assay. U937 cells contain an endogenous glucocorticoid receptor (GR). Cells are maintained in RPMI 1640 Growth medium (Gibco Cat#11875-093) containing 25 mM HEPES, 10% FBS, 2 mM L-Glutamine, 1 mM Sodium pyruvate, 25 μg/ml Gentamicin (Gibco Cat#15710-064), 1:1000 2-Mercaptoethanol (Gibco Cat#21985-023) and 0.8 mg/ml G418 (Gibco Cat#10131-027). The density of the cells in the flask needs to be about 1×106-3×10^6/ml at the time of harvest. Usually, the cells are split to 1.2˜1.4×10^5/ml (1:10) 3 days prior to the assay. 50,000 cells/well are plated in 96 well black-walled plates the day of assay. Test compounds are added 10 μL/well, and cells are incubated at 37° C. for 30˜45 min. For assaying compounds, first dilute 1:10 in DMSO to make 1 mM, then further dilute 1:100 in medium to make 10× stock prior to adding to the cells. Add 50 ng/ml PMA (Sigma, cat# P8139) 10 μL/well to a final concentration 5 ng/ml, and 1 μg/ml LPS (Sigma, cat# L4130) 10 μL/well to a final concentration 100 ng/ml. Incubate cells at 37° C. overnight for ˜18 hr. PMA is stored frozen as 100 μg/ml stock in DMSO. Dilute 1:10 in DMSO for a working stock of 10 μg/ml and store at −20 C. For assaying, dilute the 10 μg/ml working stock 1:200 in medium to make a 10× solution (50 ng/ml). Store frozen LPS at 1 mg/ml in PBS, dilute 1:1000 in medium to make 10× (1 μg/ml) for the assay. Add 6× loading buffer (CCF2-AM) 20 μL/well, and incubate at room temperature for 70˜90 min. […] The activity repressed by 100 nM dexamethasone alone is set as 100% activity.

SMILES	Emax [%]	EC50 [nM]	Transrepression U937 Cells GITAR Emax (%)
C[C@]12Cc3cnn(-c4ccc(F)cc4)c3C=C1CC[C@@]2(CO)CC(O)c1ccncc1 (single isomer, unassigned) [Example 17a]	86.1	75.3	
C[C@]12Cc3cnn(-c4ccccc4)c3C=C1CC[C@@]2(CO)CC(O)c1ccccn1 (single isomer, unassigned) [Example 23a]	82.6	22.8	
C[C@]12Cc3cnn(-c4cccc(F)c4)c3C=C1CC[C@@]2(CO)CC(O)c1cccnc1 (single isomer, unassigned) [Example 27a]	64.2	598	
Cc1cccc(C(O)C[C@]2(CO)CCC3=Cc4c(cnn4-c4ccc(F)cc4)C[C@@]32C)c1 (single isomer, unassigned) [Example 5b]		29	91.8
C[C@]12Cc3cnn(-c4ccc(F)cc4)c3C=C1CC[C@@]2(CO)CC(O)C(F)(F)F (single isomer, unassigned) [Example 28b]		90.9	80.2
CC(O)(C[C@]1(CO)CCC2=Cc3c(cnn3-c3ccc(F)cc3)C[C@@]21C)c1cccnc1 (single isomer, unassigned) [Example 25a]	61.3	293	
C[C@]12Cc3cnn(-c4ccc(F)cc4)c3C=C1CC[C@@]2(CO)CC(O)c1ccncc1 (single isomer, unassigned) [Example 17b]		59.7	83.3
Cc1ccc(C(O)C[C@]2(CO)CCC3=Cc4c(cnn4-c4ccc(F)cc4)C[C@@]32C)cc1 (single isomer, unassigned) [Example 2b]	94.4	235	
C[C@]12Cc3cnn(-c4ccc(F)cc4)c3C=C1CC[C@@]2(CO)CC(O)c1ccc(F)cn1 (single isomer, unassigned) [Example 22b]		14.1	90.6
C[C@]12Cc3cnn(-c4ccc(F)cc4)c3C=C1CC[C@@]2(CO)CC(O)c1cccnc1 (single isomer, unassigned) [Example 15a]	87.7	56.3	
C[C@]12Cc3cnn(-c4ccc(F)cc4)c3C=C1CC[C@@]2(CO)CC(O)c1ccccn1 (single isomer, unassigned) [Example 1a]	93	5.6	
C[C@]12Cc3cnn(-c4ccc(F)cc4)c3C=C1CC[C@@]2(CO)CC(O)c1ccc(F)cn1 (single isomer, unassigned) [Example 22a]	90.9	18.7	
C[C@]12Cc3cnn(-c4ccc(F)cc4)c3C=C1CC[C@@]2(CO)CC(O)c1cccc(C(F)(F)F)c1 (single isomer, unassigned) [Example 7a]	95.3	87.6	
COc1cccnc1C(O)C[C@]1(CO)CCC2=Cc3c(cnn3-c3cccc(F)c3)C[C@@]21C (single isomer, unassigned) [Example 26a]		80.8	82.1
CC(C)C(O)C[C@]1(CO)CCC2=Cc3c(cnn3-c3ccc(F)cc3)C[C@@]21C (single isomer, unassigned) [Example 14a]	82.2	1130	
C[C@]12Cc3cnn(-c4ccc(F)cc4)c3C=C1CC[C@@]2(CO)CC(O)C1CC1 (single isomer, unassigned) [Example 20b, 1-cyclopropyl-2-[(4αS)-1-(4-fluorophenyl)-5-(hydroxymethyl)-4α-methyl-1,4,4α,5,6,7-hexahydrocyclopenta[f]indazol-5-yl]ethanol]		573	72.0
C[C@]12Cc3cnn(-c4ccc(F)cc4)c3C=C1CC[C@@]2(CO)CC(O)c1ncccc1F (single isomer, unassigned) [Example 10a]	89.2	16.5	
C[C@]12Cc3cnn(-c4ccc(F)cc4)c3C=C1CC[C@@]2(CO)CC(O)c1ccccc1 (single isomer, unassigned) [Example 13a]	91	3.9	
Cc1ccc(C(O)C[C@]2(CO)CCC3=Cc4c(cnn4-c4ccc(F)cc4)C[C@@]32C)cc1 (single isomer, unassigned) [Example 2a]		137	85.0
COc1cccnc1C(O)C[C@]1(CO)CCC2=Cc3c(cnn3-c3cccc(F)c3)C[C@@]21C (single isomer, unassigned) [Example 26b]		1510	51.8
C[C@]12Cc3cnn(-c4ccc(F)cc4)c3C=C1CC[C@@]2(CO)CC(O)c1ccccc1 (single isomer, unassigned) [Example 13b]		18	96.4
COc1ccc(C(O)C[C@]2(CO)CCC3=Cc4c(cnn4-c4ccc(F)cc4)C[C@@]32C)nc1 (single isomer, unassigned) [Example 24a]	63	447	
C[C@]12Cc3cnn(-c4ccc(F)cc4)c3C=C1CC[C@@]2(CO)CC(O)c1ccccc1F (stereo partly drawn) [Example 4, 1-(2-fluorophenyl)-2-[(4αS,5R)-1-(4-fluorophenyl)-5-(hydroxymethyl)-4α-methyl-1,4,4α,5,6,7-hexahydrocyclopenta[f]indazol-5-yl]ethanol]	104	28.2	
CC(C)C(O)C[C@]1(CO)CCC2=Cc3c(cnn3-c3ccc(F)cc3)C[C@@]21C (single isomer, unassigned) [Example 14b]		249	82.3
